Laboratory results: PubChem BioAssay AID330 (DTP/NCI, 2004)
Where “and” joins values, the source holds several entries; their conditions need not be identical. Equal values may be shown once. Toxic doses and inconclusive results are not listed.

Tested on: P388 leukemia ip, CD2F1 mice, survival T/C
Test: NCI In Vivo Anticancer Drug Screen. Data for tumor model P388 Leukemia (intraperitoneal) in CD2F1 (CDF1) mice
Conditions: endpoint: median survival time, higher = longer survival
How it was run: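 Mice carrying the transplanted tumor received test compound or vehicle. Survival was recorded in each group, and the value is the treated-group measurement divided by that of the vehicle-treated control group.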

[1] = dose: 100.0 mg/kg/injection, schedule: Q01DX009 (ip), vehicle: Klucel (hydroxypropylcellulose) (HPC)
[2] = dose: 200.0 mg/kg/injection, schedule: Q01DX009 (ip), vehicle: Klucel (hydroxypropylcellulose) (HPC)
[3] = dose: 50.0 mg/kg/injection, schedule: Q01DX009 (ip), vehicle: Klucel (hydroxypropylcellulose) (HPC)
[4] = dose: 100.0 mg/kg/injection, schedule: Q01DX001 (ip), vehicle: saline with Tween-80
[5] = dose: 200.0 mg/kg/injection, schedule: Q01DX001 (ip), vehicle: saline with Tween-80
[6] = dose: 400.0 mg/kg/injection, schedule: Q01DX001 (ip), vehicle: saline with Tween-80
[7] = dose: 50.0 mg/kg/injection, schedule: Q01DX005 (ip), vehicle: Klucel (hydroxypropylcellulose) (HPC)
[8] = dose: 60.0 mg/kg/injection, schedule: Q01DX005 (ip), vehicle: saline with Tween-80
[9] = dose: 120.0 mg/kg/injection, schedule: Q01DX005 (ip), vehicle: saline with Tween-80
[10] = dose: 240.0 mg/kg/injection, schedule: Q01DX005 (ip), vehicle: saline with Tween-80
[11] = dose: 12.5 mg/kg/injection, schedule: Q01DX005 (ip), vehicle: Klucel (hydroxypropylcellulose) (HPC)
[12] = dose: 25.0 mg/kg/injection, schedule: Q01DX005 (ip), vehicle: Klucel (hydroxypropylcellulose) (HPC)
[13] = dose: 50.0 mg/kg/injection, schedule: Q01DX009 (ip), vehicle: saline with Tween-80
[14] = dose: 100.0 mg/kg/injection, schedule: Q01DX009 (ip), vehicle: saline with Tween-80
[15] = dose: 200.0 mg/kg/injection, schedule: Q01DX009 (ip), vehicle: saline with Tween-80
[16] = dose: 100.0 mg/kg/injection, schedule: Q04DX003 (ip), vehicle: saline with Tween-80
[17] = dose: 6.25 mg/kg/injection, schedule: Q01DX009 (ip), vehicle: suspension in saline
[18] = dose: 12.5 mg/kg/injection, schedule: Q01DX009 (ip), vehicle: suspension in saline
[19] = dose: 25.0 mg/kg/injection, schedule: Q01DX009 (ip), vehicle: suspension in saline
[20] = dose: 6.25 mg/kg/injection, schedule: Q01DX005 (ip), vehicle: Klucel (hydroxypropylcellulose) (HPC)

SMILES: CN1NC(c2ccccc2)NN(C)C1=S
- T/C (dose: 60.0 mg/kg/injection, schedule: Q01DX005 (ip), vehicle: Klucel (hydroxypropylcellulose) (HPC)): 101 % of control
- T/C (dose: 120.0 mg/kg/injection, schedule: Q01DX005 (ip), vehicle: Klucel (hydroxypropylcellulose) (HPC)): 98 % of control
- T/C (dose: 240.0 mg/kg/injection, schedule: Q01DX005 (ip), vehicle: Klucel (hydroxypropylcellulose) (HPC)): 106 % of control

SMILES: Cc1coc2c1CC1(C)C(CCC(OC(=O)CC(C)C)C1C)C2=O (stereo not given) (tested in a mixture with another compound)
- T/C [1]: 105 % of control
- T/C [2]: 93 % of control

SMILES: Fc1ccc(NC(=S)SCc2ccc3c(c2)OCO3)cc1F
- T/C [3]: 119 % of control
- T/C [1]: 102 % of control
- T/C [2]: 86 % of control

SMILES: NNC(=O)c1cc2c3ccccc3ncc2c2ccccc12
- T/C [4]: 86 % of control
- T/C [5]: 95 % of control
- T/C [6]: 113 % of control

SMILES: Cc1ccnc(NS(=O)(=O)c2ccc(N=CC3C(=O)N(c4ccccc4)N(c4ccccc4)C3=O)cc2)n1
- T/C [3]: 96 % of control
- T/C [2]: 101 % of control

SMILES: C/C=C\C(C)=C/C(C)C(=O)CC(O)CC1CC(=O)NC(=O)C1 (stereo not given)
- T/C (dose: 1.56 mg/kg/injection, schedule: Q01DX009 (ip), vehicle: DMSO): 91 % of control
- T/C (dose: 3.12 mg/kg/injection, schedule: Q01DX009 (ip), vehicle: DMSO): 98 % of control
- T/C (dose: 6.25 mg/kg/injection, schedule: Q01DX009 (ip), vehicle: DMSO): 93 % of control
- T/C (dose: 12.5 mg/kg/injection, schedule: Q01DX009 (ip), vehicle: DMSO): 100 % of control
- T/C (dose: 25.0 mg/kg/injection, schedule: Q01DX009 (ip), vehicle: DMSO): 107 % of control

SMILES: CCOC(=O)C(Cc1csc2ccc(Cl)cc12)NC(C)=O (stereo not given)
- T/C [3]: 94 % of control
- T/C [1]: 95 % of control
- T/C [2]: 99 % of control

SMILES: COc1ccc2c(=O)c(-c3ccc(OC)c(OC)c3OCc3ccccc3)coc2c1
- T/C (dose: 100.0 mg/kg/injection, schedule: Q01DX001 (ip), vehicle: Klucel (hydroxypropylcellulose) (HPC)): 92 % of control
- T/C (dose: 200.0 mg/kg/injection, schedule: Q01DX001 (ip), vehicle: Klucel (hydroxypropylcellulose) (HPC)): 96 % of control
- T/C (dose: 400.0 mg/kg/injection, schedule: Q01DX001 (ip), vehicle: Klucel (hydroxypropylcellulose) (HPC)): 94 % of control

SMILES: Cc1cccc(NC(=O)CS)n1
- T/C (dose: 25.0 mg/kg/injection, schedule: Q01DX009 (ip), vehicle: Klucel (hydroxypropylcellulose) (HPC)): 98 % of control
- T/C [3]: 95 % of control

SMILES: CN(C)CCC[Si]1(C)c2ccccc2CCc2ccccc21
- T/C (dose: 25.0 mg/kg/injection, schedule: Q04DX003 (ip), vehicle: saline): 104 % of control
- T/C (dose: 50.0 mg/kg/injection, schedule: Q04DX003 (ip), vehicle: saline): 105 % of control
- T/C (dose: 100.0 mg/kg/injection, schedule: Q04DX003 (ip), vehicle: saline): 109 % of control

SMILES: Cn1c(C(=O)N/N=C/C23OC(C)(C)OC2OCC2OC(C)(C)OC23)cc2cc(OCc3ccccc3)ccc21 (stereo not given)
- T/C [7]: 92 % of control
- T/C (dose: 100.0 mg/kg/injection, schedule: Q01DX005 (ip), vehicle: Klucel (hydroxypropylcellulose) (HPC)): 101 % of control
- T/C (dose: 200.0 mg/kg/injection, schedule: Q01DX005 (ip), vehicle: Klucel (hydroxypropylcellulose) (HPC)): 90 % of control

SMILES: CCOC(=O)c1cc(CC)sc1NC(=O)CC(C)=O
- T/C [8]: 97 % of control
- T/C [9]: 100 % of control
- T/C [10]: 97 % of control

SMILES: O=C(c1ccccc1)C1(Cl)CCCCC1
- T/C (dose: 25.0 mg/kg/injection, schedule: Q01DX009 (ip), vehicle: saline + alcohol): 99 % of control
- T/C (dose: 50.0 mg/kg/injection, schedule: Q01DX009 (ip), vehicle: saline + Tween-80 + alcohol): 108 % of control
- T/C (dose: 50.0 mg/kg/injection, schedule: Q01DX009 (ip), vehicle: saline + alcohol): 91 % of control
- T/C (dose: 100.0 mg/kg/injection, schedule: Q01DX009 (ip), vehicle: saline + Tween-80 + alcohol): 104 % of control
- T/C (dose: 100.0 mg/kg/injection, schedule: Q01DX009 (ip), vehicle: saline + alcohol): 100 % of control
- T/C (dose: 200.0 mg/kg/injection, schedule: Q01DX009 (ip), vehicle: saline + Tween-80 + alcohol): 99 % of control
- T/C (dose: 200.0 mg/kg/injection, schedule: Q01DX009 (ip), vehicle: saline + alcohol): 92 % of control
- T/C (dose: 400.0 mg/kg/injection, schedule: Q01DX009 (ip), vehicle: saline + Tween-80 + alcohol): 112 % of control

SMILES: CCN(CC)CCN(C(=O)C1c2ccccc2Oc2ccccc21)c1ccccc1
- T/C [11]: 106 % of control
- T/C [12]: 100 % of control
- T/C [7]: 100 % of control and 94 % of control

SMILES: Brc1ccc(N=C=C(c2ccccc2)c2ccccc2)cc1
- T/C [13]: 95 % of control
- T/C [14]: 100 % of control
- T/C [15]: 104 % of control

SMILES: CCC1CN2CCc3cc(OC)c(OC)cc3C2CC1CC1c2cc(OC)c(OC)cc2CCN1C(=O)C(Cc1c[nH]c2ccccc12)NC(=O)OC(C)(C)C (stereo not given)
- T/C (dose: 25.0 mg/kg/injection, schedule: Q01DX009 (ip), vehicle: saline with Tween-80): 105 % of control
- T/C [13]: 115 % of control
- T/C (dose: 66.0 mg/kg/injection, schedule: Q01DX009 (ip), vehicle: saline with Tween-80): 104 % of control
- T/C [16]: 104 % of control

SMILES: Clc1ccc2c(c1)C1CN(C2)Cc2ccc(Cl)cc21
- T/C [4]: 101 % of control
- T/C [5]: 87 % of control
- T/C [6]: 93 % of control

SMILES: CCCCC(CC)(CCC)CCN (stereo not given)
- T/C [17]: 104 % of control
- T/C [18]: 107 % of control
- T/C [19]: 102 % of control

SMILES: CC(=O)C(=O)c1ccc(O)c(C)c1O
- T/C [13]: 107 % of control
- T/C [14]: 104 % of control
- T/C [15]: 105 % of control

SMILES: COc1cc(C2C3=C(CC(C)(C)CC3=O)Oc3cc4c(cc32)OCO4)cc(OC)c1OC (stereo not given)
- T/C [8]: 97 % of control
- T/C [9]: 98 % of control

SMILES: CC1=NS(=O)(=O)NC(C)=C1CC1=C(C)NS(=O)(=O)N=C1C
- T/C [8]: 99 % of control
- T/C [9]: 107 % of control
- T/C [10]: 106 % of control

SMILES: CC1CN=C(c2ccc(NC(=O)c3ccc(C(=O)Nc4ccc(C5=NCC(C)N5)cc4)cc3)cc2)N1 (stereo not given)
- T/C [17]: 184 % of control
- T/C (dose: 10.0 mg/kg/injection, schedule: Q01DX010 (ip), vehicle: saline): 209 % of control
- T/C [18]: 245 % of control
- T/C (dose: 15.0 mg/kg/injection, schedule: Q01DX010 (ip), vehicle: saline): 231 % of control
- T/C (dose: 22.0 mg/kg/injection, schedule: Q01DX010 (ip), vehicle: saline): 154 % of control
- T/C [19]: 294 % of control
- T/C (dose: 33.0 mg/kg/injection, schedule: Q01DX010 (ip), vehicle: saline): 209 % of control
- T/C (dose: 50.0 mg/kg/injection, schedule: Q01DX009 (ip), vehicle: suspension in saline): 166 % of control
- T/C (dose: 100.0 mg/kg/injection, schedule: Q01DX009 (ip), vehicle: suspension in saline): 154 % of control

SMILES: N#CSCCC(=O)Nc1ccccc1
- T/C [20]: 102 % of control
- T/C [11]: 101 % of control
- T/C [12]: 104 % of control

SMILES: CC(C)(C)C1(c2ccccc2)C(=O)c2ccccc2C1=O
- T/C (dose: 100.0 mg/kg/injection, schedule: Q04DX002 (ip), vehicle: saline): 100 % of control
- T/C (dose: 200.0 mg/kg/injection, schedule: Q04DX002 (ip), vehicle: saline): 97 % of control
- T/C (dose: 400.0 mg/kg/injection, schedule: Q04DX002 (ip), vehicle: saline): 101 % of control

SMILES: CN=C(c1ccc(NC(=O)c2cc(N)cc(C(=O)Nc3ccc(C(=NC)N(C)C)cc3)c2)cc1)N(C)C
- T/C [20]: 104 % of control
- T/C [11]: 104 % of control

SMILES: CS(=O)(=O)OCCCCO
- T/C [14]: 100 % of control
- T/C [16]: 100 % of control
- T/C [15]: 110 % of control
- T/C (dose: 200.0 mg/kg/injection, schedule: Q04DX003 (ip), vehicle: saline with Tween-80): 100 % of control
- T/C (dose: 400.0 mg/kg/injection, schedule: Q01DX009 (ip), vehicle: saline with Tween-80): 110 % of control
- T/C (dose: 400.0 mg/kg/injection, schedule: Q04DX003 (ip), vehicle: saline with Tween-80): 91 % of control
